Assay results from patent US20220324835A1 (Nurix Therapeutics, Inc., priority 2018, published 2022).
Like-named read-outs stand apart in the source and are kept apart here.

Experiments:
T-cell [1] = assay: IL-2 secretion from T-cells co-stimulated with anti-CD3 and anti-CD28 antibody (Biological Example 2); assay type: cell-based, human; settings: Homo sapiens, T-cell, read-out: IL-2 secretion Anti-CD3/Anti-CD28 stimulation; for fold induction at 0.3 µM: 0.3 μM Cbl-b inhibitor; for fold induction at 1 µM: 1 μM Cbl-b inhibitor; for fold induction at 4 µM: 4 μM Cbl-b inhibitor
In short: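 No assay protocol given; T-cells stimulated with anti-CD3 alone or anti-CD3 plus anti-CD28, with or without Cbl-b inhibitor. Activation read as IL-2 secretion or CD25 surface staining, expressed as fold over baseline from uninhibited cells […].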

T-cell [2] = assay: IL-2 secretion from T-cells stimulated with anti-CD3 antibody alone (Biological Example 2); assay type: cell-based, human; settings: T-cell, read-out: IL-2 secretion Anti-CD3 stimulation; for fold induction at 1 µM: 1 μM Cbl-b inhibitor; for fold induction at 8 µM: 8 μM Cbl-b inhibitor
Cbl-b [3] = target: T1, Cbl-b (Homo sapiens, UniProt Q13191); assay: Cbl-b activity assay (Cbl-b inhibition assay), TR-FRET of Cbl-b interaction with UbcH5B-Ub; assay type: biochemical; settings: assay buffer with 100 mM NaCl, 60 nM Src kinase; read-out: Cbl-b activity IC50
T1 sequence (Q13191 36-427): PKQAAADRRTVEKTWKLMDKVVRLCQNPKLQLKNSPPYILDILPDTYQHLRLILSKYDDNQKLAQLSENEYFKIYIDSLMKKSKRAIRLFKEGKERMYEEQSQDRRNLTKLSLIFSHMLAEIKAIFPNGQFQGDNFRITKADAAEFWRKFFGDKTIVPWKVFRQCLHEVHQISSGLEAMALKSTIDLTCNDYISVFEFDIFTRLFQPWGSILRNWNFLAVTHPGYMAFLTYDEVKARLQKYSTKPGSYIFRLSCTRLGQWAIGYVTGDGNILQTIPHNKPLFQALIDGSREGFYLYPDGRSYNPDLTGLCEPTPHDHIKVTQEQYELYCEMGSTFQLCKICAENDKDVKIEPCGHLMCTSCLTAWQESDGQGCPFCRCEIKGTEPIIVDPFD
In short: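 TR-FRET readout of Cbl-b binding to Bodipy-fluorescein N-terminally labeled Ub conjugated to UbcH5B C85K, measured with compound present. After compound incubation, 60 nM Src kinase with 1 mM ATP and 5 mM MgCl2 (final) was added for 1.5 h, then a further 1 h incubation; asterisked values used 50 mM NaCl buffer and 30 nM Src.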

Cbl-b [4] = target: T1, Cbl-b; assay: Cbl-b inhibition assay (Cbl-b activity assay, FRET, Biological Example 1; 100 mM NaCl, 60 nM Src kinase); assay type: biochemical; settings: upper bound stated in text lists; read-out: IC50 values in the Cbl-b inhibition assay of Biological Example 1
In short: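 TR-FRET assay using N-terminal biotinylated Avi-tagged Cbl-b bound to streptavidin-terbium, Src kinase for Cbl-b phosphorylation, and UbcH5B irreversibly conjugated to Bodipy-Fluorescein-ubiquitin. Phosphorylated Cbl-b binds UbcH5B-Ub, bringing the fluorophores together; inhibition is read as loss of FRET signal.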

T-cell [5] = assay: CD25 cell surface staining on T-cells stimulated with anti-CD3 antibody alone (Biological Example 2); assay type: cell-based, human; settings: T-cell, read-out: CD25 staining Anti-CD3 stimulation; for fold induction at 1 µM: 1 μM Cbl-b inhibitor; for fold induction at 8 µM: 8 μM Cbl-b inhibitor
[6] = fold change over baseline, primary human total T-cells
[7] = fold change over baseline (anti-CD3/anti-CD28 stimulated T-cells without inhibitor)
[8] = Homo sapiens, fold change over baseline (anti-CD3/anti-CD28 stimulated T-cells without inhibitor)

CC(C)Nc1cc([C@H](C)Cc2nncn2C)cc(N2Cc3c(cccc3C(F)(F)F)C2=O)n1 [Compound 353, 2-{4-[(2R)-1-(4-methyl-4H-1,2,4-triazol-3-yl)propan-2-yl]-6-[(propan-2-yl)amino]pyridin-2-yl}-4-(trifluoromethyl)-2,3-dihydro-1H-isoindol-1-one]
fold induction at 0.3 µM (T-cell [1]; [6]): 1.01 to 2.5
fold induction at 1 µM (T-cell [1]; [6]): 2.51 to 5
fold induction at 4 µM (T-cell [1]; [6]): > 7.5
fold induction at 1 µM (T-cell [2]; [6]): 0.101 to 0.15
fold induction at 8 µM (T-cell [2]; [6]): > 0.201
IC50 (Cbl-b [3]): < 0.1 µM
IC50 (Cbl-b [4]): ≤ 0.1 µM
fold induction at 1 µM (T-cell [5]; [6]): 0.801 to 1
fold induction at 8 µM (T-cell [5]; [6]): > 1

Cc1cnnn1C[C@@H](C)c1cccc(NC(=O)c2cccc(C(F)(F)F)n2)c1 [Compound 312a, (S)-N-(3-(1-(5-methyl-1H-1,2,3-triazol-1-yl)propan-2-yl)phenyl)-6-(trifluoromethyl)picolinamide]
fold induction at 0.3 µM (T-cell [1]; [6]): 1.01 to 2.5
fold induction at 1 µM (T-cell [1]; [6]): 1.01 to 2.5
fold induction at 4 µM (T-cell [1]; [6]): 2.51 to 5
fold induction at 1 µM (T-cell [2]; [6]): 0.051 to 0.1
fold induction at 8 µM (T-cell [2]; [6]): 0.151 to 0.2
IC50 (Cbl-b [3]): 0.1 to 0.3 µM
IC50 (Cbl-b [4]): ≤ 0.3 µM
fold induction at 1 µM (T-cell [5]; [6]): 0.601 to 0.8
fold induction at 8 µM (T-cell [5]; [6]): 0.801 to 1

C[C@H](c1cc2c(c(C(F)(F)F)c1)CN(c1cccc(C3([C@@H](F)c4nncn4C)COC3)c1)C2=O)N1CCC2(CC2)C1 [Example 576, 6-((R)-1-(5-azaspiro[2.4]heptan-5-yl)ethyl)-2-(3-(3-((R)-fluoro(4-methyl-4H-1,2,4-triazol-3-yl)methyl)oxetan-3-yl)phenyl)-4-(trifluoromethyl)isoindolin-1-one]
fold induction at 0.3 µM (T-cell [1]; [7]): > 7.5
fold induction at 1 µM (T-cell [1]; [7]): > 7.5
fold induction at 1 µM (T-cell [2]; [8]): > 0.201
IC50 (Cbl-b [3]): < 0.1 µM
IC50 (Cbl-b [4]): ≤ 0.1 µM
fold induction at 1 µM (T-cell [5]; [8]): > 1

C[C@H](Cc1nncn1C)c1cccc(NC(=O)c2ccc(CO)c(C3CC3)n2)c1 [Compound 203, 6-cyclopropyl-5-(hydroxymethyl)-N-[3-[(2R)-1-(4-methyl-4H-1,2,4-triazol-3-yl)propan-2-yl]phenyl]pyridine-2-carboxamide]
fold induction at 0.3 µM (T-cell [1]; [6]): > 7.5
fold induction at 1 µM (T-cell [1]; [6]): > 7.5
fold induction at 4 µM (T-cell [1]; [6]): > 7.5
fold induction at 1 µM (T-cell [2]; [6]): > 0.201
fold induction at 8 µM (T-cell [2]; [6]): > 0.201
IC50 (Cbl-b [3]): < 0.1 µM
IC50 (Cbl-b [4]): ≤ 0.1 µM
fold induction at 1 µM (T-cell [5]; [6]): > 1
fold induction at 8 µM (T-cell [5]; [6]): > 1

Cn1cnnc1CC1(c2cccc(NC(=O)c3nc4c(C(F)(F)F)cccc4[nH]3)c2)COC1 [Compound 335, N-(3-{3-[(4-methyl-1,2,4-triazol-3-yl)methyl]oxetan-3-yl}phenyl)-4-(trifluoromethyl)-1H-1,3-benzodiazole-2-carboxamide]
fold induction at 0.3 µM (T-cell [1]; [6]): 2.51 to 5
fold induction at 1 µM (T-cell [1]; [6]): 5 to 7.5
fold induction at 4 µM (T-cell [1]; [6]): > 7.5
fold induction at 1 µM (T-cell [2]; [6]): 0.101 to 0.15
fold induction at 8 µM (T-cell [2]; [6]): > 0.201
IC50 (Cbl-b [3]): < 0.1 µM
IC50 (Cbl-b [4]): ≤ 0.1 µM
fold induction at 1 µM (T-cell [5]; [6]): 0.801 to 1
fold induction at 8 µM (T-cell [5]; [6]): > 1

Cc1cc(C(=O)Nc2cccc([C@H](C)Cc3nocc3C)c2)nc(C2CC2)n1 [Compound 330, (R)-2-cyclopropyl-6-methyl-N-(3-(1-(4-methylisoxazol-3-yl)propan-2-yl)phenyl)pyrimidine-4-carboxamide]
fold induction at 0.3 µM (T-cell [1]; [6]): 1.01 to 2.5
fold induction at 1 µM (T-cell [1]; [6]): 2.51 to 5
fold induction at 4 µM (T-cell [1]; [6]): 5 to 7.5
fold induction at 1 µM (T-cell [2]; [6]): 0.051 to 0.1
fold induction at 8 µM (T-cell [2]; [6]): > 0.201
IC50 (Cbl-b [3]): < 0.1 µM
IC50 (Cbl-b [4]): ≤ 0.1 µM
fold induction at 1 µM (T-cell [5]; [6]): 0.801 to 1
fold induction at 8 µM (T-cell [5]; [6]): > 1
